{"source": "patent US20120258482A1", "about": "“PCNA […]” (INDIANA UNIVERSITY RESEARCH AND TECHNOLOGY CORPORATION, priority 2009, published 2012)", "format_in_all_cases": "cell-based, human", "key": {"[1]": {"test_system": "p21WAF1/CIP1 in MCF7 cells", "test": "Immunoblot with anti-p21WAF1 antibodies after DOX treatment", "conditions": "5 μM DOX, 4 h after treatment"}, "[2]": {"test_system": "PCNA isoform in MDA MB468 cells (p53-mutant)", "test": "2D-PAGE anti-PCNA immunoblot after DOX exposure, MDA MB468", "conditions": "5 μM DOX", "procedure": "(§1) FIG. 7A is a Western blot analysis of p53 wild-type (MCF7) and p53-mutant (MDA-MB-468) breast carcinoma cell lines exposed to 5 μM DOX for the indicated times. Cell extracts (200 μg) were resolved by 2D-PAGE and immunoblotted with anti-PCNA antibodies. In FIG. 7B extracts from MCF7 cells (50 μg) treated with 5 μM DOX were separated by 12% SDS-PAGE and immunoblotted with anti-p21WAF1 antibodies. FIG. 7C is a Western blot analysis of glutathione-immobilized GST-p21 and GST-PIP (a.a. 139-160) fusion proteins incubated with untreated MCF7 cell extracts for 2 h at 4° C. and the pull-down fractions were resolved by 2D-PAGE and Western blotted for PCNA. PCNA isoforms were isolated from MCF7 extracts by incubation with PIP-affinity beads for ˜2 h and analyzed by 2D-PAGE using pH 4-7 IPG strips. Colloidal Coomassie stained spots (See FIG. 7D) were excised from the gel, trypsin digested, and sequenced by LC-MS/MS.\n(§2) 2D-PAGE and mass spectrometry. Isoelectric focusing was performed using IPG strips and an IEF cell (BioRad) as previously described (Hoelz, D. J. et al. Proteomics 6, 4808-4816, 2006). […] Anti-PCNA (PC10) antibodies were obtained from Santa Cruz Biotech and anti-WAF1 (DF10) were from EMD Biosciences.\n(§3) Although the description of Arm1 identifies a novel posttranslational mechanism in eukaryotic cells, its biological significance was still unclear. […]"}, "[3]": {"test_system": "PCNA isoform in MCF7 cells (p53 wild-type)", "test": "2D-PAGE anti-PCNA immunoblot after DOX exposure, MCF7", "conditions": "high-dose (5 μM) DOX", "procedure": "as §1, §2, §3"}}}
{"compound": "COc1cccc2c1C(=O)c1c(O)c3c(c(O)c1C2=O)C[C@@](O)(C(=O)CO)C[C@@H]3O[C@H]1C[C@H](N)[C@H](O)[C@H](C)O1", "note": "[DOX, doxorubicin]", "values": [{"measurement": "induction of p21 expression", "setting": "[1]", "value": "over 27 fold"}, {"measurement": "basic-shifted (methyl esterified) PCNA isoform", "setting": "[2]", "value": "unable to identify the isoform"}, {"measurement": "basic-shifted (methyl esterified) PCNA isoform, pI ~5.6", "setting": "[3]", "value": "induced"}]}
